tested on: human nerve extract; experiment: Phage display selection on plates coated with human nerve extract (Plated Nerve2), NextGen sequence counts; type: binding; conditions: unique sequence count (relative enrichment); Plated Nerve2 only
Procedure: Several m13 phage libraries were constructed expressing randomized variants of a parent peptide (QVPWEEPYYVVKKS-SGGL; SEQ ID NO: 576). In particular, the first 14 amino acids of the parent peptide were randomized using degenerate oligonucleotide synthesis to obtain a diverse set of peptides with a mutation rate of about 50% per residue.
To accomplish this, synthesis was carried out by the XXK codon design approach, where X is any base and K is G or T. To bias synthesis towards the parent sequence, synthesis was carried out at each X position with a mixture of about 70%-85% of the parent nucleotide and 15-30% of the remaining 3 nucleotides. The resulting molecules were inserted into fADL-1e (Antibody Design Laboratories), which is a type 3 phage display vector having a cloning site on the N-terminal side of the full-length gene III protein. The fusion proteins are directed to the periplasm by the PelB leader peptide, which is inserted in the vector […].
Collectively, the phage display libraries used in the screens comprised about 600 million peptides, with sequencing analysis confirming a mutation rate of about 50% per residue.
Phage libraries were independently processed, as follows, with five biological samples: two independent samples of excised human nerve tissue, one sample of a human nerve extract, and two independent samples of human muscle tissue, as follows:
Human Nerve Extracts: Phage libraries were incubated for up to 24 hours at 4° C. in 96 well plates that had been coated with a human nerve extract. Plates were then washed with PBS and phage were eluted using 0.2M glycine pH 2.0. Phage supernatants where then neutralized with Tris pH 9.0 prior to plating on TG1 bacteria and LB agar plates. Colonies were counted to determine titer followed by DNA preparation of pools of phage and NextGen sequencing. After rounds of selection, phage were pooled and amplified for iterative selection. Phage that eluted by 0.2M glycine pH 2.0 (the nerve binders) at each round were sequenced. NextGen sequencing of pools after 2, 3 and 4 rounds of selection were used to isolate candidate sequences that were further analyzed using bioinformatics.
NextGen sequencing of pools after 2, 3 and 4 rounds of selection were used to isolate candidate sequences from each of the five samples. These five data sets were then analyzed as described in the next section.
Peptide and vector sequences were translated starting at the first start codon in the nucleotide sequence. […] Trimmed peptides with identical sequences were combined and quantified according to their frequency (count).
Following processing, an R script was written to merge the unique peptide sequences (with counts 6 or greater) from the 5 different data sets to analyze the overlap between nerve and muscle binding activity.
For the single Nerve2, Nerve3, and Plated Nerve2 (pn2) subsets, the number of counts for each group was set at a threshold giving rise to at least 100 peptides. […] As highlighted in yellow in FIG. 1B, the representative group also included 6 unique peptides overlapping between nerve2 and nerve3, 200 unique peptides overlapping between nerve2 and plated nerve2 (at least 60 counts), 4 unique peptides overlapping between nerve3 and plated nerve2. Finally, as highlighted in green in FIG. 1B, the representative group also included […] common to the nerve2, nerve3, and plated nerve2 sets.

First: 450 (QFAWSQSYAYSSTT) [compound 450]
Second: 451 (QGQWDKPYDAVQNS) [compound 451]
The Count of the first is higher: 107 for the first, 88 for the second.

Compared with 452 (QIPGDAQYRLVKRS) [compound 452], 453 (QIPWTQPQYDVTPP) [compound 453] is lower in Count: 80 for the first, 79 for the second.

Substance 454 (HVELESSYYFVNNS) [compound 454] has a Count of 78.

tested on: excised human nerve tissue; experiment: Phage display selection on excised human nerve tissue (Nerve2, Nerve3), NextGen sequence counts; type: binding; conditions: unique sequence count (relative enrichment); Nerve3 only
Outline: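 Randomized parent-peptide m13 phage libraries (about 50% mutation per residue) selected on washed excised human nerve tissue over multiple rounds, washing nerve pellet with PBS. NextGen sequencing of pools after rounds 2, 3 and 4; translated peptides counted by frequency, with counts 6 or greater retained.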

Compared with 355 (RVPWQEPYYVVLKP) [compound 355], 356 (QLPGYEPYYVGTVS) [compound 356] is lower in Count: 419 for the first, 412 for the second.

Compared with 357 (RIPSVGPYGVVKTF) [compound 357], 358 (QDVWAEPYYAGKQP) [compound 358] is lower in Count: 391 for the first, 390 for the second.

359 (HVAWQEPRYFVKKS) [compound 359] and 360 (YLFAEELAYNLTKS) [compound 360] are the same in Count: 359 for the first, 359 for the second.

Compared with 361 (QRPWEQAYFVVRST) [compound 361], 362 (FVSREEPYYVVKKS) [compound 362] is lower in Count: 357 for the first, 341 for the second.

Going from 363 (DVAREKPYYDMKKS) [compound 363] to 364 (QFPSVGSYYVVPQS) [compound 364], the Count falls from 335 to 331.

Going from 365 (HVVWESSHFVVIDS) [compound 365] to 366 (QLRLGDLYNVMTKE) [compound 366], the Count falls from 329 to 328.

First: 367 (QFQWQELLNVVKDS) [compound 367]
Second: 368 (HVPLQEADYVLKKF) [compound 368]
The Count of the first is higher: 327 for the first, 315 for the second.

Compared with 369 (QFPLYDPYEVMPKS) [compound 369], 370 (HFRWDEPYYIANKA) [compound 370] is lower in Count: 310 for the first, 300 for the second.

Compared with 371 (RDRHEDSKFVMNHS) [compound 371], 372 (QVPFAHPYYVVNMS) [compound 372] is lower in Count: 290 for the first, 288 for the second.

Going from 373 (HVRWGEPSYVLKNF) [compound 373] to 374 (QGQTETHSHDAKRY) [compound 374], the Count falls from 272 to 270.

Compared with 375 (QLRFEGPDNPGVQS) [compound 375], 376 (QLPWEVPYSVVRQS) [compound 376] is lower in Count: 269 for the first, 267 for the second.

First: 377 (HVPLPGPYFVLKNY) [compound 377]
Second: 378 (HVKRIETYYVFTKS) [compound 378]
The Count of the first is higher: 263 for the first, 258 for the second.

Going from 379 (RIHLYQPYSILKNY) [compound 379] to 380 (QFTSEETHYVVNKS) [compound 380], the Count falls from 258 to 257.

Compared with 381 (QHPWEDPYKIFNKY) [compound 381], 382 (DVPWPNAYNFGIKS) [compound 382] is lower in Count: 240 for the first, 238 for the second.

First: 383 (DVPFEHSYYGEQQY) [compound 383]
Second: 384 (EFLGEAPYYVVSRS) [compound 384]
The Count of the first is higher: 237 for the first, 236 for the second.

Compared with 385 (HVSGEEPYTVGNTS) [compound 385], 386 (QFQLDQSYYSFNTL) [compound 386] is lower in Count: 234 for the first, 231 for the second.

Going from 387 (QILRVHPDYVVVNP) [compound 387] to 388 (HFPWDEAYLVVKNP) [compound 388], the Count falls from 231 to 230.

First: 389 (HFSSQESNSGGKKW) [compound 389]
Second: 390 (HISGEDPYFILQNS) [compound 390]
The Count of the first is higher: 230 for the first, 212 for the second.

Going from 391 (TFQYEQPNLVVKNA) [compound 391] to 392 (LLAWDEQDYFLRKT) [compound 392], the Count falls from 207 to 199.

First: 393 (HINWDKRYAVVITY) [compound 393]
Second: 394 (HFPSEYPFDLVSKS) [compound 394]
The Count of the first is higher: 197 for the first, 196 for the second.

Compared with 395 (QFLWQQPDHVRRKS) [compound 395], 396 (QIVLNAPYYVVKTS) [compound 396] is lower in Count: 196 for the first, 189 for the second.

First: 397 (TVPAHNPYYLVKQT) [compound 397]
Second: 398 (QDPSVDPYYVDRSS) [compound 398]
The Count of the first is higher: 185 for the first, 181 for the second.

Going from 399 (QFHCHGACYIVKNS) [compound 399] to 400 (RLPQHESYIVGKIS) [compound 400], the Count falls from 180 to 174.

Compared with 401 (RVYWIDPYYIVNES) [compound 401], 402 (QIPLKTPYNVVKKF) [compound 402] is lower in Count: 174 for the first, 171 for the second.

First: 403 (QFPQGEAGYIAKSF) [compound 403]
Second: 404 (QFYWDQSNYGEQKP) [compound 404]
The Count of the first is higher: 163 for the first, 161 for the second.

Going from 405 (HVPWAGSSDVLKVT) [compound 405] to 406 (QVPWEKPVSFVQKS) [compound 406], the Count falls from 160 to 159.

First: 407 (HVWWEDPYYVVRKT) [compound 407]
Second: 408 (WLHWEQPYWTVKKS) [compound 408]
The Count of the first is higher: 158 for the first, 143 for the second.

Going from 409 (LFAGENGYFTVRQF) [compound 409] to 410 (QVSWVYPPNDVIVS) [compound 410], the Count falls from 139 to 133.

Compared with 411 (NDPWPVPYYMVKNS) [compound 411], 412 (QVQWQVPYYVVKKP) [compound 412] is lower in Count: 130 for the first, 128 for the second.

Compared with 413 (HFPLQEPYYVVKNS) [compound 413], 414 (QGSSVATSSVLTML) [compound 414] is lower in Count: 127 for the first, 123 for the second.

Going from 415 (QPCADKPYCVHTIT) [compound 415] to 416 (HVWWEEAHYSWKHS) [compound 416], the Count falls from 123 to 120.

Compared with 417 (DLFVEEPYLGVIKF) [compound 417], 418 (YSLWEDLIFNMQNS) [compound 418] is lower in Count: 117 for the first, 116 for the second.

First: 419 (QIPWVEASNVLISF) [compound 419]
Second: 420 (QFGQENHNHFVRKS) [compound 420]
The Count of the first is higher: 115 for the first, 113 for the second.

Going from 421 (QVSLVESRSVLKIL) [compound 421] to 422 (AVQRAKPYYAVQNS) [compound 422], the Count falls from 110 to 109.

First: 423 (HLLGDYRFWAFTNA) [compound 423]
Second: 424 (ESPWAPPYYVVKKS) [compound 424]
The Count of the first is higher: 109 for the first, 107 for the second.

425 (QIPTVEPYYEGKKS) [compound 425] and 426 (QVRGGQPDQVLRLS) [compound 426] are the same in Count: 105 for the first, 105 for the second.

First: 427 (FVARNEPFYVVGTS) [compound 427]
Second: 428 (QIPLEEMYYVVRTY) [compound 428]
The Count of the first is higher: 104 for the first, 103 for the second.

Going from 429 (QVSSVGPNHVVKKI) [compound 429] to 430 (QLPWGKPYNVVVYS) [compound 430], the Count falls from 102 to 101.

Compared with 431 (QTPWQVPGYNMLNS) [compound 431], 432 (AYLSEQLNYVMKNS) [compound 432] is lower in Count: 99 for the first, 98 for the second.

Compared with 433 (QASSEAPSYPVVKS) [compound 433], 434 (LDQWHTPNYVVRKS) [compound 434] is lower in Count: 95 for the first, 92 for the second.

First: 435 (QLLWDPPSYFVNNS) [compound 435]
Second: 436 (DVPWEQPYFVVRNS) [compound 436]
The Count of the first is higher: 92 for the first, 90 for the second.

Going from 437 (QVPYGQSFVVGTSS) [compound 437] to 438 (QLRWEDQYAHVEKS) [compound 438], the Count falls from 90 to 89.

First: 439 (HVAWKAPYHFTKNS) [compound 439]
Second: 440 (DGLYVRSFYVLQHS) [compound 440]
The Count of the first is higher: 87 for the first, 86 for the second.

441 (QFALKGLNGDFQKS) [compound 441] and 442 (QFPSAETYRIVKKF) [compound 442] are the same in Count: 83 for the first, 83 for the second.

Going from 443 (QLTWELGYHAFVKP) [compound 443] to 444 (QLLRNLSYDGAKYS) [compound 444], the Count falls from 83 to 82.

Going from 445 (QLRVKLQYDVIANN) [compound 445] to 446 (QVPAREPNHIVKKS) [compound 446], the Count falls from 81 to 80.

Going from 447 (SAREQGTFYFVNNS) [compound 447] to 448 (LFPKYAPHESVKMS) [compound 448], the Count falls from 80 to 78.

449 (QVPGNELYFVLKQY) [compound 449] gave a Count of 77.

From patent US20240207422A1, “NERVE TARGETING PEPTIDE CONJUGATES AND METHODS OF USE” (Alume Biosciences, Inc., priority 2022, published 2024)
